Assay results as given in publication PMC12198407, “Preclinical and first-in-human of purinostat mesylate, a novel selective HDAC I/IIb inhibitor, in relapsed/refractory multiple myeloma and lymphoma” (Signal Transduction and Targeted Therapy, 2025).
Like-named read-outs stand apart in the source and are kept apart here.

Legend:
CYP3A4 = molecular target: T1, CYP3A4 (Homo sapiens, UniProt P08684); test: CYP inhibition, human liver microsomes; type: in vitro ADME
T1 construct: human liver microsomal cytochrome P450 isoenzymes; from tissue; host or cells: human liver microsomes
T1 sequence (P08684 whole entry): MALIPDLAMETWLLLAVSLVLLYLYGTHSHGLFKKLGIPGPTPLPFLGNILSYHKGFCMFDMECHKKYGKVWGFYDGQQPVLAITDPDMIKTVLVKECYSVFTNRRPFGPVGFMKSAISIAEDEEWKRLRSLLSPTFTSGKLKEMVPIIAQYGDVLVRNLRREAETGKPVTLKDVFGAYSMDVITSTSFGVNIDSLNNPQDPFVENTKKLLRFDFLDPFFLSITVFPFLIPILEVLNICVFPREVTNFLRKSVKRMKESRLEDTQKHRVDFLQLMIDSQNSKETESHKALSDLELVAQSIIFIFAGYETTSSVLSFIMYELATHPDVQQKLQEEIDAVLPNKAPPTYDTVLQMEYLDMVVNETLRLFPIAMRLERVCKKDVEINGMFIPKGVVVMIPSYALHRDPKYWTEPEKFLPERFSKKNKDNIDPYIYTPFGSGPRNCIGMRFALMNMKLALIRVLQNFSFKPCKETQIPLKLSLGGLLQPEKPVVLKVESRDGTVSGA

[1] = human, in vivo
HDAC2 = HDAC2 (Homo sapiens, UniProt Q92769); test: HDAC enzyme activity in vitro; type: biochemical
Chain of HDAC2 (Q92769 whole entry): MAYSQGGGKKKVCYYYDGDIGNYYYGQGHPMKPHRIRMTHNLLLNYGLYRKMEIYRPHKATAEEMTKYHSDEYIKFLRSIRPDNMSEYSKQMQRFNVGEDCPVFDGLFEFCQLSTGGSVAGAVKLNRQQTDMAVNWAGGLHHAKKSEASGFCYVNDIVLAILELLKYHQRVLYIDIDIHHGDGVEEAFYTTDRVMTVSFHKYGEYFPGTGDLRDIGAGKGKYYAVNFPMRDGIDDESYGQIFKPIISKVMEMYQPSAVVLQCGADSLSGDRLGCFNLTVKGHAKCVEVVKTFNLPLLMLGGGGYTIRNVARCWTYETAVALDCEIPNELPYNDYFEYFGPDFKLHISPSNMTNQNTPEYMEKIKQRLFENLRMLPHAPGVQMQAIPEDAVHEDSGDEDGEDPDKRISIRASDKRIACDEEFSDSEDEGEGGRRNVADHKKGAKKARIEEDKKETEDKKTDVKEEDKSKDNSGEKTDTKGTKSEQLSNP

CYP2B6 = test: CYP induction, cryopreserved human liver cells; type: in vitro ADME; conditions: 0.0500, 0.500, 5.00 µM; three donors
[2] = Pharmacokinetics and tissue distribution in Ighmyc mice; type: in vivo
Source text: In B cell-related tumors, the mechanism of disease often involves the translocation of the MYC oncogene to the immunoglobulin promoter region, leading to its hyperactivation. The translocation of the MYC gene to the IGH enhancer (t(8;14) (q24;q32)) is a molecular hallmark of Burkitt lymphoma. The Ighmyc (Eμ-myc) mouse model successfully mimics this pathogenic mechanism by translocating the MYC oncogene to the immunoglobulin μ enhancer. […] We isolated bone marrow and enlarged spleen from diseased Ighmyc mice and transplanted them into normal C57 mice via tail vein injection to induce a primary B cell lymphoma model. This study aims to investigate the pharmacokinetic characteristics and tissue distribution of Purinostat Mesylate in plasma and target organs in the context of primary B cell lymphoma.
The mean residence times (MRT) were 6.00 ± 1.00 h, 24.8 ± 1.03 h, and 23.4 ± 3.59 h, respectively. […] However, in Ighmyc mice, the plasma drug concentration after the same duration was 7.11 ± 3.15 ng/mL. […] The pharmacokinetic characteristics support the notion that spaced dosing of the drug can still maintain favorable pharmacodynamic outcomes.

## CN(Cc1nc2c(N3CCOCC3)nc(-c3ccc(N)cc3)nc2n1C)c1ncc(C(=O)NO)cn1.CS(=O)(=O)O [PM, 2-(((2-(4-Aminophenyl)-9-methyl-6-(4-morpholinyl)-9H-purine-8-yl)methyl)methylamino)-N-hydroxy-5-pyrimidine-carboxamide Mesylate]
CYP3A4; midazolam as the substrate
  IC50: > 10000 nM
CYP3A4; testosterone as the substrate
  IC50: 1130 nM
[1]
  QT interval prolongation on ECG: 10(34.5) n (%)
  cardiac toxic adverse events: no grade 3 or higher events occurring
  transient QTc interval prolongation, grade: ≤ 2 grade
Mouse
  PAD: 2.5 mg/kg
beagle, dog
  MRSD from MTD, most sensitive species: 3.33 mg/m²
  equivalent human dose of exposure at dog HNSTD: 36.88 mg/m²
HDAC2
  IC50: 1.4 nM
CYP2B6
  induction of CYP2B6: did not act as an inducer
[2]; 48 hours after single i.v. 5 mg/kg, untreated 48.9%
  abnormal B220+/IgM- cell population in peripheral blood: about 18.8%
[2]; Ighmyc (Eμ-myc), mouse, lymph node, iv, single i.v. 5 mg/kg, read-out: lymph node AUC(0-72h)
  AUC(0-t): 16100 ± 2040 ng·h/mL
[2]; Ighmyc (Eμ-myc), mouse, lymph nodes, iv, single i.v. 5 mg/kg, read-out: Cmax in lymph nodes
  Cmax: 578 ± 153 ng/mL
[2]; Ighmyc (Eμ-myc), mouse, lymph nodes, iv, single i.v. 5 mg/kg, read-out: MRT in lymph nodes
  MRT: 23.4 ± 3.59 h
[2]; Ighmyc (Eμ-myc), mouse, lymph nodes, iv, single i.v. 5 mg/kg, read-out: T1/2 in lymph nodes (converted)
  half-life: 21.9 ± 10.2 h
[2]; Ighmyc (Eμ-myc), mouse, lymph nodes, iv, single i.v. 5 mg/kg, read-out: concentration in lymph nodes at 48 hours
  concentration at 48 h: 178 ± 46 ng/mL
[2]; Ighmyc (Eμ-myc), mouse, plasma, iv, single i.v. 5 mg/kg, read-out: Cmax in plasma
  Cmax: 304 ± 277 ng/mL
[2]; Ighmyc (Eμ-myc), mouse, plasma, iv, single i.v. 5 mg/kg, read-out: MRT in plasma
  MRT: 6 ± 1 h
[2]; Ighmyc (Eμ-myc), mouse, plasma, iv, single i.v. 5 mg/kg, read-out: T1/2 in plasma (converted)
  half-life: 12.2 ± 2.1 h
[2]; Ighmyc (Eμ-myc), mouse, plasma, iv, single i.v. 5 mg/kg, read-out: plasma AUC(0-48h)
  AUC(0-t): 875 ± 437 ng·h/mL
[2]; Ighmyc (Eμ-myc), mouse, plasma, iv, single i.v. 5 mg/kg, read-out: plasma drug concentration at 24 hours
  concentration at 24 h: 7.11 ± 3.15 ng/mL
[2]; Ighmyc (Eμ-myc), mouse, spleen, iv, single i.v. 5 mg/kg, read-out: Cmax in spleen
  Cmax: 410 ± 69.9 ng/mL
[2]; Ighmyc (Eμ-myc), mouse, spleen, iv, single i.v. 5 mg/kg, read-out: MRT in spleen
  MRT: 24.8 ± 1.03 h
[2]; Ighmyc (Eμ-myc), mouse, spleen, iv, single i.v. 5 mg/kg, read-out: T1/2 in spleen (converted)
  half-life: 20.8 ± 7.94 h
[2]; Ighmyc (Eμ-myc), mouse, spleen, iv, single i.v. 5 mg/kg, read-out: concentration in spleen at 48 hours
  concentration at 48 h: 134 ± 18.5 ng/mL
[2]; Ighmyc (Eμ-myc), mouse, spleen, iv, single i.v. 5 mg/kg, read-out: spleen AUC(0-72h)
  AUC(0-t): 12500 ± 244 ng·h/mL
[2]; single i.v. 5 mg/kg, listed as Purinostat Mesylate, 5 mg/kg
  plasma drug concentration at 24 hours: 7.11 ng/mL
